Measurements: PubChem BioAssay AID256 (DTP/NCI, 2004)
Toxic doses and inconclusive results are not listed. Rule for the calls: active = survival T/C of 150% or more; inactive = T/C below 125% in these data.

Test system: CD2F1 mice, L1210 leukemia ip, survival T/C
Test: NCI In Vivo Anticancer Drug Screen. Data for tumor model L1210 Leukemia (intraperitoneal) in CD2F1 (CDF1) mice
Details: higher = longer survival
Summary of the method: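 Vehicle-treated tumor-bearing mice served as controls (C) for compound-treated mice (T). Reported figure is T divided by C.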

[1] = endpoint: mean survival time, dose: 100.0 mg/kg/injection, schedule: Q01DX001 (ip), vehicle: saline
[2] = endpoint: mean survival time, dose: 100.0 mg/kg/injection, schedule: Q01DX001 (ip), vehicle: saline with Tween-80
[3] = endpoint: mean survival time, dose: 200.0 mg/kg/injection, schedule: Q01DX001 (ip), vehicle: saline with Tween-80
[4] = endpoint: mean survival time, dose: 100.0 mg/kg/injection, schedule: Q04DX003 (ip), vehicle: saline with Tween-80
[5] = endpoint: mean survival time, dose: 200.0 mg/kg/injection, schedule: Q04DX003 (ip), vehicle: saline with Tween-80
[6] = endpoint: mean survival time, dose: 100.0 mg/kg/injection, schedule: Q01DX009 (ip), vehicle: saline with Tween-80
[7] = endpoint: mean survival time, dose: 200.0 mg/kg/injection, schedule: Q01DX009 (ip), vehicle: saline with Tween-80
[8] = endpoint: mean survival time, dose: 400.0 mg/kg/injection, schedule: Q01DX009 (ip), vehicle: saline with Tween-80

Measured: T/C

CC(=O)OC1CCC2(C)C(CCC3C2CC(OC(C)=O)C2(C)C3CCC2C2(C)SCCS2)C1 (stereo not given)
inactive: endpoint: mean survival time, dose: 50.0 mg/kg/injection, schedule: Q04DX002 (ip), vehicle: Klucel (hydroxypropylcellulose) (HPC) 95 % of control | endpoint: mean survival time, dose: 100.0 mg/kg/injection, schedule: Q04DX002 (ip), vehicle: Klucel (hydroxypropylcellulose) (HPC) 98 % of control | endpoint: mean survival time, dose: 200.0 mg/kg/injection, schedule: Q04DX002 (ip), vehicle: Klucel (hydroxypropylcellulose) (HPC) 88 % of control

CN(CCCOS(C)(=O)=O)CCCN(C)CCCOS(C)(=O)=O
inactive: endpoint: mean survival time, dose: 10.0 mg/kg/injection, schedule: Q01DX001 (ip), vehicle: saline 115 % of control | endpoint: mean survival time, dose: 20.0 mg/kg/injection, schedule: Q01DX001 (ip), vehicle: saline 107 % of control | endpoint: mean survival time, dose: 40.0 mg/kg/injection, schedule: Q01DX001 (ip), vehicle: saline 115 % of control | endpoint: mean survival time, dose: 60.0 mg/kg/injection, schedule: Q01DX001 (ip), vehicle: saline 124 % of control | endpoint: mean survival time, dose: 80.0 mg/kg/injection, schedule: Q01DX001 (ip), vehicle: saline 115 % of control | [1] 117 % of control

C/C(=C/c1ccc([N+](=O)[O-])cc1)C(=O)O
inactive: [2] 103 % of control | [3] 100 % of control | endpoint: mean survival time, dose: 400.0 mg/kg/injection, schedule: Q01DX001 (ip), vehicle: saline with Tween-80 103 % of control

Nc1ncnc2sc3c(c12)CCCC3
inactive: endpoint: mean survival time, dose: 50.0 mg/kg/injection, schedule: Q04DX003 (ip), vehicle: Klucel (hydroxypropylcellulose) (HPC) 96 % of control | endpoint: mean survival time, dose: 100.0 mg/kg/injection, schedule: Q04DX003 (ip), vehicle: Klucel (hydroxypropylcellulose) (HPC) 100 % of control | endpoint: mean survival time, dose: 200.0 mg/kg/injection, schedule: Q04DX003 (ip), vehicle: Klucel (hydroxypropylcellulose) (HPC) 91 % of control

O=C(Cl)N(c1ccccc1)c1ccccc1
inactive: [2] 91 % of control | [3] 100 % of control

N=c1c2ncn(C3OC(CO)C(O)C3O)c2ncn1N (stereo not given)
inactive: endpoint: mean survival time, dose: 50.0 mg/kg/injection, schedule: Q01DX005 (ip), vehicle: water 101 % of control | endpoint: mean survival time, dose: 100.0 mg/kg/injection, schedule: Q01DX005 (ip), vehicle: water 101 % of control | endpoint: mean survival time, dose: 200.0 mg/kg/injection, schedule: Q01DX005 (ip), vehicle: water 114 % of control

OC(c1ccccc1)(c1ccccc1)C1c2ccccc2-c2[nH]c3ccccc3c21 (stereo not given)
inactive: endpoint: mean survival time, dose: 25.0 mg/kg/injection, schedule: Q01DX001 (ip), vehicle: saline with Tween-80 96 % of control | endpoint: mean survival time, dose: 50.0 mg/kg/injection, schedule: Q01DX001 (ip), vehicle: saline with Tween-80 93 % of control | [2] 89 % of control

CCCCOC(=O)CCl
inactive: [1] 100 % of control | endpoint: mean survival time, dose: 200.0 mg/kg/injection, schedule: Q01DX001 (ip), vehicle: saline 94 % of control

Nc1nc(N)c2c(n1)NCN(CCc1c(Cl)cccc1Cl)C2
inactive: endpoint: mean survival time, dose: 0.75 mg/kg/injection, schedule: Q01DX009 (ip), vehicle: distilled water + Tween-80 98 % of control | endpoint: mean survival time, dose: 1.5 mg/kg/injection, schedule: Q01DX009 (ip), vehicle: distilled water + Tween-80 102 % of control | endpoint: mean survival time, dose: 3.0 mg/kg/injection, schedule: Q01DX009 (ip), vehicle: distilled water + Tween-80 98 % of control | endpoint: mean survival time, dose: 6.0 mg/kg/injection, schedule: Q01DX009 (ip), vehicle: distilled water + Tween-80 98 % of control | endpoint: mean survival time, dose: 12.0 mg/kg/injection, schedule: Q01DX009 (ip), vehicle: distilled water + Tween-80 104 % of control | endpoint: mean survival time, dose: 24.0 mg/kg/injection, schedule: Q01DX009 (ip), vehicle: distilled water + Tween-80 98 % of control | endpoint: mean survival time, dose: 37.5 mg/kg/injection, schedule: Q01DX009 (ip), vehicle: distilled water + Tween-80 100 % of control | endpoint: mean survival time, dose: 75.0 mg/kg/injection, schedule: Q01DX009 (ip), vehicle: distilled water + Tween-80 97 % of control

CCCCNCCCNCCCNC(=O)c1csc(-c2csc(CCNC(=O)C(NC(=O)C(C)C(O)C(C)NC(=O)C(NC(=O)c3nc(C(CC(N)=O)NCC(N)C(N)=O)nc(N)c3C)C(OC3OC(CO)C(O)C(O)C3OC3OC(CO)C(O)C(OC(N)=O)C3O)c3cnc[nH]3)C(C)O)n2)n1 (stereo not given)
inactive: endpoint: mean survival time, dose: 2.5 mg/kg/injection, schedule: Q01DX009 (ip), vehicle: saline 101 % of control | endpoint: mean survival time, dose: 5.0 mg/kg/injection, schedule: Q01DX009 (ip), vehicle: saline 101 % of control | endpoint: mean survival time, dose: 10.0 mg/kg/injection, schedule: Q01DX009 (ip), vehicle: saline 114 % of control | endpoint: mean survival time, dose: 20.0 mg/kg/injection, schedule: Q01DX009 (ip), vehicle: saline 104 % of control | endpoint: mean survival time, dose: 40.0 mg/kg/injection, schedule: Q01DX009 (ip), vehicle: saline 104 % of control

O=Cc1cccc(OCc2ccc([N+](=O)[O-])cc2)c1
inactive: endpoint: mean survival time, dose: 50.0 mg/kg/injection, schedule: Q01DX009 (ip), vehicle: Klucel (hydroxypropylcellulose) (HPC) 105 % of control | endpoint: mean survival time, dose: 100.0 mg/kg/injection, schedule: Q01DX009 (ip), vehicle: Klucel (hydroxypropylcellulose) (HPC) 108 % of control | endpoint: mean survival time, dose: 200.0 mg/kg/injection, schedule: Q01DX009 (ip), vehicle: Klucel (hydroxypropylcellulose) (HPC) 97 % of control

Oc1cc2c(cc1O)-c1[nH]ncc1CC2
inactive: endpoint: mean survival time, dose: 100.0 mg/kg/injection, schedule: Q04DX002 (ip), vehicle: saline with Tween-80 115 % of control | endpoint: mean survival time, dose: 200.0 mg/kg/injection, schedule: Q04DX002 (ip), vehicle: saline with Tween-80 103 % of control | endpoint: mean survival time, dose: 400.0 mg/kg/injection, schedule: Q04DX002 (ip), vehicle: saline with Tween-80 98 % of control

O=C(COc1ccc(Cl)c(Cl)c1)Nc1ccc(C(=O)CCl)cc1
inactive: [4] 100 % of control | [5] 97 % of control | endpoint: mean survival time, dose: 400.0 mg/kg/injection, schedule: Q04DX003 (ip), vehicle: saline with Tween-80 114 % of control

CC(C)(C[NH-])C[NH-].O=C(O)CC(=O)O.[Pt+2]
inactive: endpoint: median survival time, dose: 0.78 mg/kg/injection, schedule: Q04DX003 (ip), vehicle: water 116 % of control | endpoint: median survival time, dose: 1.56 mg/kg/injection, schedule: Q04DX003 (ip), vehicle: water 113 % of control | endpoint: median survival time, dose: 3.12 mg/kg/injection, schedule: Q04DX003 (ip), vehicle: water 112 % of control | endpoint: median survival time, dose: 3.13 mg/kg/injection, schedule: Q04DX003 (ip), vehicle: distilled water + Tween-80 123 % of control | endpoint: median survival time, dose: 12.5 mg/kg/injection, schedule: Q04DX003 (ip), vehicle: distilled water + Tween-80 116 % of control | endpoint: median survival time, dose: 12.5 mg/kg/injection, schedule: Q04DX003 (ip), vehicle: water 112 % of control | endpoint: median survival time, dose: 25.0 mg/kg/injection, schedule: Q04DX003 (ip), vehicle: distilled water + Tween-80 98 % of control

CCCCCCCCCCCCC/C=N/NC(=O)c1ccc[n+](C)c1
inactive: [2] 93 % of control | [3] 98 % of control

C/C(CCC(=O)O)=N\NC(N)=O
inactive: [6] 97 % of control | [4] 95 % of control | [7] 97 % of control | [5] 90 % of control | [8] 93 % of control

Cc1ccc(NC(=O)CCl)cc1Cl
inactive: endpoint: mean survival time, dose: 50.0 mg/kg/injection, schedule: Q01DX009 (ip), vehicle: saline with Tween-80 95 % of control | [6] 90 % of control | [4] 98 % of control | [5] 89 % of control

NC(=O)N/N=C1\CC2C=CCC12 (stereo not given)
inactive: [6] 95 % of control | [7] 98 % of control

C=CC(=O)CCCC(=O)O
inactive: [6] 100 % of control | [7] 102 % of control | [8] 104 % of control
